Reference: US9718835B2 (China Medical University Hospital, priority 2013, dated 2017)
Read-outs that look alike come from different tables or passages of the source.

Experiments:
[1] = test system: KB (epidermoid carcinoma of the nasopharynx); assay: Sulforhodamine B cytotoxicity assay, KB; format: cell-based, human; conditions: Table 1; 72 h; average ± SD; read-out: IC50 KB
Experimental: (§1) The 12 novel 1-derivatives 9a-l were evaluated for in vitro antiproliferative activity against four human tumor cell lines, KB (nasopharyngeal), A-549 (lung), DU-145 (prostate), and KBvin (MDR KB subline), by using a sulforhodamine B colorimetric assay with triplicate experiments.^30 Compounds 1 and 3 were used as controls.
(§2) The human tumor cell lines used in this manuscript were A-549 (lung carcinoma), MDA-MB-231 (triple-negative breast cancer), DU-145 (hormone-insensitive prostate cancer), KB (originally isolated from epidermoid carcinoma of the nasopharynx), KBvin (vincristine-resistant KB subline), and HCT116 (colorectal adenocarcinoma). These cell lines were obtained from the Lineberger Comprehensive Cancer Center (UNC-CH) or from ATCC (Manassas, Va.), except KBvin, which was a generous gift of Professor Y.-C. Cheng (Yale University). All cell lines were maintained and assayed in RPMI-1640 medium containing 2 mM L-glutamine and 25 mM HEPES (HyClone), supplemented with 10% heat-inactivated fetal bovine serum (HyClone), 100 μg/mL streptomycin, 100 IU/mL penicillin, and 0.25 μg/mL amphotericin B (Cellgro) in a humidified atmosphere containing 5% CO2 in air. Compound stock solutions were prepared at 10 mM in DMSO and diluted with culture medium with the final DMSO concentration ≦0.01% (v/v), a concentration without effect on cell growth. The 4-6×10^3 cells/well were cultured for 72 h with various concentrations of test compounds in 96-well plate at 37° C. […] Each assay was performed in triplicate with duplicated samples.

[2] = test system: KBvin (vincristine-resistant KB subline); assay: Sulforhodamine B cytotoxicity assay, KBvin; format: cell-based, human; conditions: Table 1; 72 h; average ± SD; read-out: IC50 KBvin
Excerpt: as §2, with “Compound stock solutions were prepared at 10 mM in DMSO and diluted with culture medium with the final DMSO concentration ≦0.01% (v/v), a concentration without effect on cell growth.” left out

[3] = test system: DU-145 (hormone-insensitive prostate cancer); assay: Sulforhodamine B cytotoxicity assay, DU-145; format: cell-based, human; conditions: Table 1; 72 h; average ± SD
Experimental: as §1, §2

A-549 (lung carcinoma) = assay: Sulforhodamine B cytotoxicity assay, A-549; format: cell-based, human; conditions: Table 1; 72 h; average ± SD
Excerpt: as §2, with “Compound stock solutions were prepared at 10 mM in DMSO and diluted with culture medium with the final DMSO concentration ≦0.01% (v/v), a concentration without effect on cell growth.” left out

HCT 116 (Colon cancer) = assay: cells; format: cell-based, human
SKOV3 (Ovary cancer) = assay: cells; format: cell-based, human
[4] = test system: MDA-MB-468 (Breast cancer); assay: cells; format: cell-based, human
A549 (Lung cancer) = assay: cells; format: cell-based, human
[5] = target: T1, recombinant human Topoisomerase I (Homo sapiens, UniProt P11387); assay: Topoisomerase I activity assay in a cell-free system; format: biochemical; conditions: purified recombinant human Topo I
T1 construct: purchased TopoGEN
T1 sequence (P11387 1-765): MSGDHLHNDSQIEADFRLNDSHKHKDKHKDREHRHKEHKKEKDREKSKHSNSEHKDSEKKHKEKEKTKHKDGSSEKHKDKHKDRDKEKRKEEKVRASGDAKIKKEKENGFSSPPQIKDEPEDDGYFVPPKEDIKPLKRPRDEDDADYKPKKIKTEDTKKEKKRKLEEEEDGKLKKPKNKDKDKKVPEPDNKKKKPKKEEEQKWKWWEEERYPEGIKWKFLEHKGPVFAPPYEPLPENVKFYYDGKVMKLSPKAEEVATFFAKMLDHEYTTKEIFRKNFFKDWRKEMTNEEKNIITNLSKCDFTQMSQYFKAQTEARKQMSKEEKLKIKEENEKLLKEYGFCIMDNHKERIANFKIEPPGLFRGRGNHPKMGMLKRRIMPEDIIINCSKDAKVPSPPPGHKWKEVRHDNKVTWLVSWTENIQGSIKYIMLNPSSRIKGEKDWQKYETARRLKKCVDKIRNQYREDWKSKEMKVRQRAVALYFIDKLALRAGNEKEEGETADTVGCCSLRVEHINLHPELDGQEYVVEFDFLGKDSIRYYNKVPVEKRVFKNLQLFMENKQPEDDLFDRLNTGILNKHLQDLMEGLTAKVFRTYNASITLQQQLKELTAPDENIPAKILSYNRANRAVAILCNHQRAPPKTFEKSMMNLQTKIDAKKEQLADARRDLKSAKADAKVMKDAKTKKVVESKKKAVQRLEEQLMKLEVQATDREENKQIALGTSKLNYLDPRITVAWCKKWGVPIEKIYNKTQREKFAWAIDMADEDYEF
Experimental: Inhibition of Topo I activity by 9a in a cell-free system. A 1-delivative with an esterified 20-hydroxy group is expected to be activated by digestion with carboxylesterases. […] We authenticated the inhibitory effect of 9a against Topo I in a dose-dependent manner Thus, we confirmed that 9a is a new class of Topo I inhibitor.
One unit of recombinant human Topoisomerase I enzyme (TopoGEN) was pre-incubated for 20 min at 37° C. with vehicle, 9a, 1, 3, or SN-38 in a final volume of 20 μL reaction buffer (10 mM Tris-HCl, pH 7.9, 1 mM EDTA, 150 mM NaCl, 0.1% BSA, 0.1 mM spermidine, 5% glycerol) was then incubated with 250 ng of supercoiled plasmid DNA for 20 min. The supercoiled, relaxed, or nicked DNA was separated by 1% agarose gel in 1×TAE (Tris-Acetate-EDTA) buffer. Ethidium bromide stained agarose gel was photographed using Gel Doc XR (Bio-Rad).

[6] = Homo sapiens, HCT-116, Table 6, read-out: In vitro cytotoxicity HCT 116 (Colon cancer)
[7] = Homo sapiens, SK-OV-3, Table 6, read-out: In vitro cytotoxicity SKOV3 (Ovary cancer)
[8] = Homo sapiens, MDA-MB-468, Table 6, read-out: In vitro cytotoxicity MDA-MB-468 (Breast cancer)
[9] = Homo sapiens, A549, Table 6, read-out: In vitro cytotoxicity A549 (Lung cancer)

| SMILES | IC50 [1] | IC50 [2] | IC50 [3] | IC50 (A-549 (lung carcinoma)) | also measured |
| --- | --- | --- | --- | --- | --- |
| CC[C@@]1(OC(=O)C(CC(C)C)NC(Cc2ccccc2)=NS(=O)(=O)c2ccc(C)cc2)C(=O)OCc2c1cc1n(c2=O)Cc2cc3ccccc3nc2-1 (stereo partly drawn) [Compound 9h] | 4400 ± 420 nM | 1800 ± 30 nM | 1100 ± 16 nM | 890 ± 39 nM | – |
| CC[C@@]1(OC(=O)C(NC(Cc2ccc(OC)cc2)=NS(=O)(=O)c2ccc(C)cc2)C(C)C)C(=O)OCc2c1cc1n(c2=O)Cc2cc3ccccc3nc2-1 (stereo partly drawn) [Compound 9e] | 11000 ± 480 nM | 1500 ± 110 nM | 1700 ± 140 nM | 1000 ± 110 nM | – |
| CC[C@@]1(OC(=O)C(Cc2ccccc2)NC(Cc2ccc(OC)cc2)=NS(=O)(=O)c2ccc(C)cc2)C(=O)OCc2c1cc1n(c2=O)Cc2cc3ccccc3nc2-1 (stereo partly drawn) [Compound 9k] | 850 ± 24 nM | 120 ± 1.9 nM | 220 ± 25 nM | 120 ± 10 nM | – |
| CC[C@@]1(OC(=O)C(CC(C)C)NC(Cc2ccc(OC)cc2)=NS(=O)(=O)c2ccc(C)cc2)C(=O)OCc2c1cc1n(c2=O)Cc2cc3ccccc3nc2-1 (stereo partly drawn) [Compound 9g] | 2700 ± 8.3 nM | 1000 ± 130 nM | 1600 ± 96 nM | 950 ± 18 nM | – |
| CC[C@@]1(OC(=O)CNC(Cc2ccccc2)=NS(=O)(=O)c2ccc(C)cc2)C(=O)OCc2c1cc1n(c2=O)Cc2cc3ccccc3nc2-1 [Compound 9b] | 180 ± 0.8 nM | 100 ± 7.3 nM | 130 ± 11 nM | 57 ± 3.9 nM | – |
| CC[C@@]1(OC(=O)C(C)NC(Cc2ccc(OC)cc2)=NS(=O)(=O)c2ccc(C)cc2)C(=O)OCc2c1cc1n(c2=O)Cc2cc3ccccc3nc2-1 (stereo partly drawn) [Compound 9c] | 910 ± 60 nM | 87 ± 8.7 nM | 140 ± 5.9 nM | 89 ± 8.3 nM | – |
| CC[C@@]1(OC(=O)CNC(Cc2ccc(OC)cc2)=NS(=O)(=O)c2ccc(C)cc2)C(=O)OCc2c1cc1n(c2=O)C(C)c2cc3ccccc3nc2-1 (stereo partly drawn) [#10] | – | – | – | – | IC50 (HCT 116 (Colon cancer); [6]): 2090 ± 96.1 nM; IC50 (SKOV3 (Ovary cancer); [7]): 132 ± 24.2 nM; IC50 [4, 8]: 1650 ± 90.8 nM; IC50 (A549 (Lung cancer); [9]): 2810 ± 416 nM |
| CCc1c2c(nc3ccccc13)-c1cc3c(c(=O)n1C2)COC(=O)[C@@]3(CC)OC(=O)CNC(Cc1ccc(OC)cc1)=NS(=O)(=O)c1ccc(C)cc1 [Wcpt-03] | – | – | – | – | IC50 (HCT 116 (Colon cancer); Table 6, read-out: In vitro cytotoxicity HCT 116 (Colon cancer)): 208 ± 4.79 nM; IC50 (SKOV3 (Ovary cancer); Table 6, read-out: In vitro cytotoxicity SKOV3 (Ovary cancer)): 8.08 ± 1.67 nM; IC50 ([4]; Table 6, read-out: In vitro cytotoxicity MDA-MB-468 (Breast cancer)): 17.7 ± 3.2 nM; IC50 (A549 (Lung cancer); Table 6, read-out: In vitro cytotoxicity A549 (Lung cancer)): 48.3 ± 1.72 nM |
| CCC(C)C(NC(Cc1ccc(OC)cc1)=NS(=O)(=O)c1ccc(C)cc1)C(=O)O[C@]1(CC)C(=O)OCc2c1cc1n(c2=O)Cc2cc3ccccc3nc2-1 (stereo partly drawn) [Compound 9i] | 9600 ± 42 nM | 1700 ± 160 nM | 8300 ± 140 nM | 1200 ± 66 nM | – |
| CC[C@@]1(OC(=O)C(C)NC(Cc2ccccc2)=NS(=O)(=O)c2ccc(C)cc2)C(=O)OCc2c1cc1n(c2=O)Cc2cc3ccccc3nc2-1 (stereo partly drawn) [Compound 9d] | 220 ± 17 nM | 96 ± 9.4 nM | 150 ± 22 nM | 71 ± 6.9 nM | – |
| CCc1c2c(nc3ccc(O)cc13)-c1cc3c(c(=O)n1C2)COC(=O)[C@@]3(CC)OC(=O)CNC(Cc1ccc(OC)cc1)=NS(=O)(=O)c1ccc(C)cc1 [Compound Wcpt-37] | – | – | – | – | IC50 (HCT 116 (Colon cancer); [6]): 55.8 ± 2.05 nM; IC50 (SKOV3 (Ovary cancer); [7]): 11.6 ± 4.08 nM; IC50 [4, 8]: 7.54 ± 4.07 nM; IC50 (A549 (Lung cancer); [9]): 121 ± 15.8 nM |
| CCC(C)C(NC(Cc1ccccc1)=NS(=O)(=O)c1ccc(C)cc1)C(=O)O[C@]1(CC)C(=O)OCc2c1cc1n(c2=O)Cc2cc3ccccc3nc2-1 (stereo partly drawn) [Compound 9j] | 11000 ± 1000 nM | 8200 ± 610 nM | 11000 ± 750 nM | 6500 ± 430 nM | – |
| CC[C@@]1(OC(=O)C(NC(Cc2ccccc2)=NS(=O)(=O)c2ccc(C)cc2)C(C)C)C(=O)OCc2c1cc1n(c2=O)Cc2cc3ccccc3nc2-1 (stereo partly drawn) [Compound 9f] | 11000 ± 280 nM | 2200 ± 56 nM | 2000 ± 250 nM | 1300 ± 120 nM | – |
| CC[C@@]1(OC(=O)CNC(Cc2ccc(F)cc2)=NS(=O)(=O)c2ccc(C)cc2)C(=O)OCc2c1cc1n(c2=O)Cc2cc3ccccc3nc2-1 [#11] | – | – | – | – | IC50 (HCT 116 (Colon cancer); [6]): 71.9 ± 2.59 nM; IC50 (SKOV3 (Ovary cancer); [7]): 31.1 ± 6.05 nM; IC50 [4, 8]: 49.7 ± 6.53 nM; IC50 (A549 (Lung cancer); [9]): 123 ± 9.1 nM |
| CCc1c2c(nc3ccc(OC(=O)N4CCC(N5CCCCC5)CC4)cc13)-c1cc3c(c(=O)n1C2)COC(=O)[C@@]3(CC)OC(=O)CNC(Cc1ccc(OC)cc1)=NS(=O)(=O)c1ccc(C)cc1 [Compound Wcpt-39] | – | – | – | – | IC50 (HCT 116 (Colon cancer); Homo sapiens, HCT-116, read-out: In vitro cytotoxicity HCT 116 (Colon cancer)): 12500 ± 445 nM; IC50 (SKOV3 (Ovary cancer); Homo sapiens, SK-OV-3, read-out: In vitro cytotoxicity SKOV3 (Ovary cancer)): 4380 ± 674 nM; IC50 ([4]; Homo sapiens, MDA-MB-468, read-out: In vitro cytotoxicity MDA-MB-468 (Breast cancer)): 6640 ± 497 nM; IC50 (A549 (Lung cancer); Homo sapiens, A549, read-out: In vitro cytotoxicity A549 (Lung cancer)): 30700 ± 2120 nM |
| CCc1c2c(nc3ccc(O)cc13)-c1cc3c(c(=O)n1C2)COC(=O)[C@]3(O)CC [SN-38] | – | – | – | – | Inhibition of Topo I activity (relaxation/nicking of supercoiled plasmid DNA) [5]: inhibited Topo I activity |
| CC[C@@]1(OC(=O)CNC(Cc2ccc(OC)cc2)=NS(=O)(=O)c2ccc(C)cc2)C(=O)OCc2c1cc1n(c2=O)Cc2cc3c(CN4CCN(C)CC4)c(O)ccc3nc2-1 [#9] | – | – | – | – | IC50 (HCT 116 (Colon cancer); [6]): 458 ± 46.3 nM; IC50 (SKOV3 (Ovary cancer); [7]): 1700 ± 279 nM; IC50 [4, 8]: 871 ± 44.9 nM; IC50 (A549 (Lung cancer); [9]): 13200 ± 1090 nM |
| CC[C@@]1(OC(=O)C(Cc2ccccc2)NC(CCO)=NS(=O)(=O)c2ccc(C)cc2)C(=O)OCc2c1cc1n(c2=O)Cc2cc3ccccc3nc2-1 (stereo partly drawn) [Compound 9l] | 310 ± 21 nM | 140 ± 8.1 nM | 200 ± 13 nM | 83 ± 10 nM | – |
